Values belong to the molecule of their own block, whether it stands above or below them.
Columns and labels:
rSmGST [1] = target: T1, rSmGST (Spirometra mansoni, UniProt I1SZ68); assay: Enzyme kinetics of rSmGST with the substrates GSH and CDNB (Lineweaver-Burk plot); assay type: biochemical; details: for saturation point (substrate concentration): no further increase in enzyme activity above this concentration
Protocol: (§1) The effect of temperature on rSmGST was carried out by keeping the enzyme at different temperatures (15, 20, 25, 30, 35, 40, 45, 50, and 55°C) for 10 min, and then enzyme activity was assayed immediately. The effect of pH on rSmGST was carried out using the phosphate buffer having different pH from 5.5 to 10. Activity of enzyme was determined in 100 mM potassium phosphate buffer (pH 6.5) with 1 mM l-chloro-2,4-dinitrobenzene (CDNB) and 4 mM GSH as substrates by following the change in absorbance at 340 nm (ε 1/4 9.6 mM^−1. cm^−1) for 1 min at 30°C as previously described ([28]). In the kinetic mechanism analysis of rSmGST, double reciprocal Lineweaver-Burk plot was used to graphically determine the apparent Km and Vmax values. Inhibition studies were performed according to the procedure of Tahir et al. ([29]). Different range of concentrations of Rose Bengal (RB, 0.1–1000 μM), Cibacron Blue (CB, 0.1–1000 μM), Bromosulfophtalein (BSP, 0.1–500 μM), and Tripheniltin chloride (TPT, 0.1–100 μM) were used as inhibitors respectively. The concentration of inhibitor giving 50% inhibition (IC50) was obtained by plotting the percent of residual activity vs the log of inhibitor concentration. The Ki values for each rSmGST inhibitor were determined according to methods described in Nava et al. ([30]). To ascertain which type of reversible enzyme inhibition occurs, initial-velocity enzyme reactions in the presence of the inhibitors were performed. The rSmGST was preincubated for a few seconds in the assay buffer with 4 mM GSH and inhibitor at the corresponding concentration (CB, 10, 30 μM; TPT, 4, 8 μM; BSP, 20, 60 μM and RB, 20, 60 μM). The reaction was initiated by addition of one of a range of 0.20 to 2.0 mM of different concentrations of CDNB. A set of reactions under identical conditions was performed for each inhibitor concentration and for the non-inhibitor control.

rSmGST [2] = target: T1, rSmGST; assay: biochemical; assay type: biochemical; details: for Ki / IC50: 4 mM GSH; for Ki: CDNB varied 0.20 to 2.0 mM, secondary plot of 1/v intercept vs inhibitor concentration; for inhibition pattern: CDNB as the variable substrate, double-reciprocal plots; for maximal slope at IC50 of fractional velocity vs log inhibitor concentration: Supplementary Figure S4; for IC50: concentration giving 50% inhibition, percent residual activity vs log inhibitor concentration, 1 mM CDNB, pH 6.5
Protocol: as §1

[3] = substrate: N[C@@H](CCC(=O)N[C@@H](CS)C(=O)NCC(=O)O)C(=O)O; assay: Enzyme kinetics of rSmGST with the substrates GSH and CDNB (Lineweaver-Burk plot); assay type: biochemical, Spirometra mansoni; details: other: Lineweaver-Burk plot; GSH 0.5–5.0 mM or CDNB 0.2–2.0 mM as varied substrate; pH 6.5
Protocol: as §1, with “To ascertain which type of reversible enzyme inhibition occurs, initial-velocity enzyme reactions in the presence of the inhibitors were performed. The rSmGST was preincubated for a few seconds in the assay buffer with 4 mM GSH and inhibitor at the corresponding concentration (CB, 10, 30 μM; TPT, 4, 8 μM; BSP, 20, 60 μM and RB, 20, 60 μM). The reaction was initiated by addition of one of a range of 0.20 to 2.0 mM of different concentrations of CDNB. A set of reactions under identical conditions was performed for each inhibitor concentration and for the non-inhibitor control.” left out

[4] = Lineweaver-Burk plot, GSH 0.5–5.0 mM or CDNB 0.2–2.0 mM as varied substrate

Molecule: N[C@@H](CCC(=O)N[C@@H](CS)C(=O)NCC(=O)O)C(=O)O [GSH, glutathione]
saturation point (substrate concentration) (rSmGST [1]): 4.0 mM

Molecule: O=[N+]([O-])c1ccc(Cl)c([N+](=O)[O-])c1 [CDNB, 1-chloro-2,4-dinitrobenzene]
specific activity of rSmGST toward substrate (rSmGST [1]): 3.12 µmol/min/mg
Km (rSmGST [1]; [4]): 6.29 mM
Vmax (rSmGST [1]; [4]): 10.120 µmol/min/mL
saturation point (substrate concentration) (rSmGST [1]): 1.6 mM

Molecule: [Cl][Sn]([c]1ccccc1)([c]1ccccc1)[c]1ccccc1 [Tripheniltin chloride]
Ki (rSmGST [2]): 11.7 µM
inhibition pattern (rSmGST [2]): non-competitive
maximal slope at IC50 of fractional velocity vs log inhibitor concentration (rSmGST [2]): −0.59
IC50 (rSmGST [2]): 12.1 µM

Molecule: O=C([O-])c1c(Cl)c(Cl)c(Cl)c(Cl)c1-c1c2cc(I)c(=O)c(I)c-2oc2c(I)c([O-])c(I)cc12.[Na+].[Na+] [Rose Bengal]
Ki (rSmGST [2]): 57.6 µM
inhibition pattern (rSmGST [2]): uncompetitive
maximal slope at IC50 of fractional velocity vs log inhibitor concentration (rSmGST [2]): −0.63
IC50 (rSmGST [2]): 34 µM

Molecule: O=C1OC(c2ccc(O)c(S(=O)(=O)O)c2)(c2ccc(O)c(S(=O)(=O)O)c2)c2c(Br)c(Br)c(Br)c(Br)c21 [Bromosulfophtalein]
Ki (rSmGST [2]): 122 µM
inhibition pattern (rSmGST [2]): non-competitive
maximal slope at IC50 of fractional velocity vs log inhibitor concentration (rSmGST [2]): −0.27
IC50 (rSmGST [2]): 290 µM

Ki (rSmGST [2]): 20.1 µM
inhibition pattern (rSmGST [2]): uncompetitive
maximal slope at IC50 of fractional velocity vs log inhibitor concentration (rSmGST [2]): −0.51
IC50 (rSmGST [2]): 11.7 µM
Molecule: Nc1c(S(=O)(=O)O)cc(Nc2ccc(Nc3nc(Cl)nc(Nc4ccccc4S(=O)(=O)O)n3)c(S(=O)(=O)O)c2)c2c1C(=O)c1ccccc1C2=O [Cibacron Blue]

B1: rSmGST (Spirometra erinaceieuropaei) (protein)
chain: MGSLPVLEYWKIRGLAQAIRLLFHYLGQEYVEELYEAGGPPDFSREPWLKHKFNKGLDFPNLPYLIDDGFKITQSGAILEYVADKHGMLPTSAKERAVLHMLQNELSGFRASYGRLVYNPDFSKLKQGFLDELPQKLRLWSNYLGDKQWLTGDKIQYPDFNLYDFLDALQNLEPSCLKDFPNLQRYMKRFEDLDKIKEFQKSDAYIAHPFNNTVAAWRGDA
Km [3]: 0.78 mM
Vmax [3]: 1.146 µmol/min/mL

Source: PMC9666886, “Molecular characteristics of glutathione transferase gene family in a neglect medical Spirometra tapeworm” (Frontiers in Veterinary Science, 2022)
